# Measured values: ChEMBL document CHEMBL1134342, “Current and novel approaches to the drug treatment of schizophrenia” (J Med Chem, 2001)
# Activity calls are given as the source filed them. The calls are words filed in the database; no cut-off is given here.
# Legend:
# [1] = Binding affinity at sodium channels
# D(4) dopamine receptor = target: T1, D(4) dopamine receptor (Homo sapiens, UniProt P21917)
# T1 sequence (P21917 whole entry): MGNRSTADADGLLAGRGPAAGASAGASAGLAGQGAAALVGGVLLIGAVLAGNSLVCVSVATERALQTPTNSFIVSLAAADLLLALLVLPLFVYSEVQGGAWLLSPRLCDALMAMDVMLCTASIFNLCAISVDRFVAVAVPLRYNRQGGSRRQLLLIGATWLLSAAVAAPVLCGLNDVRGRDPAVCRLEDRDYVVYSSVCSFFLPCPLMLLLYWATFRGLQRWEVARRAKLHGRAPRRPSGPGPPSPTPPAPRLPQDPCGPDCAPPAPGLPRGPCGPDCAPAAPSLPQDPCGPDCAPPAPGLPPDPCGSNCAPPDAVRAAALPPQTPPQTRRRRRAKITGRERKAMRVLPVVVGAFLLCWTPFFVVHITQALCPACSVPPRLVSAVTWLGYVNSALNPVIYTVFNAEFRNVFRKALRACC
# [2] = target: T2, Adrenergic receptor alpha-1 (Homo sapiens, UniProt P35348+P25100+P35368)
# T2 sequence (P35348 whole entry): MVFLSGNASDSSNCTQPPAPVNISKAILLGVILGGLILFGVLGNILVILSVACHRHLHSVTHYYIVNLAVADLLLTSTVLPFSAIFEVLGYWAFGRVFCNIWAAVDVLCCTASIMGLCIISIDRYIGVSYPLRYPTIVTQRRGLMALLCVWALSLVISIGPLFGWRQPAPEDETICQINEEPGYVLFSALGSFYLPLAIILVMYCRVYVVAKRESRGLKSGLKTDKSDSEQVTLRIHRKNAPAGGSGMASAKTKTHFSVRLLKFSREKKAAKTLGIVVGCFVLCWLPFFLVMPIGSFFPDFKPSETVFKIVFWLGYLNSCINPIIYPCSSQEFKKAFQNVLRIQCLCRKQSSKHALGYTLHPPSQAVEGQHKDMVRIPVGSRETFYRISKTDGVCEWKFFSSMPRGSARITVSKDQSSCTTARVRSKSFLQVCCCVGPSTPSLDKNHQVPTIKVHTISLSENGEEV
# T2 sequence (P25100 whole entry): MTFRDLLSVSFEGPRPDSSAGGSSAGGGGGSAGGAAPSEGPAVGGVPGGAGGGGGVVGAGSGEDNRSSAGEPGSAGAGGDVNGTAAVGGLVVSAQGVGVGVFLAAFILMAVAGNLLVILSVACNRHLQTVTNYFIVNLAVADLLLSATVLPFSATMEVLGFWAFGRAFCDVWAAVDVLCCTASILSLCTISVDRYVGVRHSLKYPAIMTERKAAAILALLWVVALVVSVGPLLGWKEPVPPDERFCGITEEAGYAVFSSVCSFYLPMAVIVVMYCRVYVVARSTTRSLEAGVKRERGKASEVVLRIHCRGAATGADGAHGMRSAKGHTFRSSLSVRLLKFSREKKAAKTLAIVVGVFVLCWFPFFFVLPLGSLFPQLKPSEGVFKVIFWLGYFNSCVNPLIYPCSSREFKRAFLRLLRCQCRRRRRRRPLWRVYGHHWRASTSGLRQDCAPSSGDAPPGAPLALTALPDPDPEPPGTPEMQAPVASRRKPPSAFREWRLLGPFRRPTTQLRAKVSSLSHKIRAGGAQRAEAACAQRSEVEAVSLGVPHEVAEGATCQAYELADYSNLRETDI
# T2 sequence (P35368 whole entry): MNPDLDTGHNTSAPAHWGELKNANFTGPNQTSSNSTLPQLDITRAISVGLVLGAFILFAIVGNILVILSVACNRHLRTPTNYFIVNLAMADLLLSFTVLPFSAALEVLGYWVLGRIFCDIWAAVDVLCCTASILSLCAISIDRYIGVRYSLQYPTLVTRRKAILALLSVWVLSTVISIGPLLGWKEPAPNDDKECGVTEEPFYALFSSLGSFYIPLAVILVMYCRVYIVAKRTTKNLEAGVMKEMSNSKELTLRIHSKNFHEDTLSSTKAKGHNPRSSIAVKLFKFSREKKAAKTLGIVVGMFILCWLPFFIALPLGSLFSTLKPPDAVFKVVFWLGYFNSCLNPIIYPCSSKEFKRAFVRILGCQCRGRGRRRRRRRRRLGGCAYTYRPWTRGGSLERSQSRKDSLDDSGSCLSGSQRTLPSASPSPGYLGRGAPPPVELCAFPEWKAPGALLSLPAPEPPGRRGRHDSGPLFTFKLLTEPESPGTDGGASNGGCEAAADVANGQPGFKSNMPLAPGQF
# Description: Binding affinity towards human alpha-1 adrenergic receptor
# [3] = target: T3, 5-hydroxytryptamine receptor 1A (Homo sapiens, UniProt P08908); assay: Binding affinity towards human 5-hydroxytryptamine 1 receptor
# T3 sequence (P08908 whole entry): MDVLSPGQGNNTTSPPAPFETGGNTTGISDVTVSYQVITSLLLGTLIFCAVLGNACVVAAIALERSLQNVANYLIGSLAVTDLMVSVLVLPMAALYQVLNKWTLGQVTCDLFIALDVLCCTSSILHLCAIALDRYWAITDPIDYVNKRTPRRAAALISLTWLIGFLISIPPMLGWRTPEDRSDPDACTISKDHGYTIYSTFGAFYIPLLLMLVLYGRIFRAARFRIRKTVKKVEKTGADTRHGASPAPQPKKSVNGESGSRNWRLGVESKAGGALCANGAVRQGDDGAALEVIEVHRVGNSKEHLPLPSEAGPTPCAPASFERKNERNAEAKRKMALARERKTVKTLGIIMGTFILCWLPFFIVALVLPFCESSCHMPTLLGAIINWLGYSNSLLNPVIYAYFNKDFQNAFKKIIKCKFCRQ
# [4] = target: T4, Muscarinic acetylcholine receptor M1 (Homo sapiens, UniProt P11229)
# T4 sequence (P11229 whole entry): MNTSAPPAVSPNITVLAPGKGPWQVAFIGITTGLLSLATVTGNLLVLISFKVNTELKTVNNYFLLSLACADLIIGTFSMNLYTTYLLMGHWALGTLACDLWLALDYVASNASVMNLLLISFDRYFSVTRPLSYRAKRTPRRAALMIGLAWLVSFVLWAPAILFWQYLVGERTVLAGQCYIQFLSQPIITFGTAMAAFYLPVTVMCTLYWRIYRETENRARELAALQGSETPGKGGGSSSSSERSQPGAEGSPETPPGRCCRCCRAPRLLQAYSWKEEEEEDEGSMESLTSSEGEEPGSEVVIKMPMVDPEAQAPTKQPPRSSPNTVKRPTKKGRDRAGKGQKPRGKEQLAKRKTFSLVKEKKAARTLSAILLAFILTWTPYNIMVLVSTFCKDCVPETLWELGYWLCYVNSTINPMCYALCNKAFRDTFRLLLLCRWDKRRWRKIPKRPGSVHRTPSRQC
# Description: Binding affinity towards human M1 receptor.
# [5] = Half life period was determined in rat; assay type: ADME, organism-based; conditions: in vivo
# [6] = Bioavailability in rat; assay type: ADME, organism-based; conditions: in vivo
# [7] = Cmax was determined in rat after oral administration of 3 mg/kg; assay type: ADME, organism-based; design: dose 3 mg/kg, route oral; conditions: in vivo
# [8] = target: 5-hydroxytryptamine receptor 2A (Homo sapiens, UniProt P28223)
# Description: Binding affinity for human 5-hydroxytryptamine 2A receptor
# Rattus norvegicus [9] = assay: Block of mescaline induced head twitch in rat at 6 hour after peroral administration of compound; assay type: functional; conditions: po
# Rattus norvegicus [10] = assay: Block of mescaline induced head twitch in rat at 1 hour after peroral administration of compound; assay type: functional; conditions: po
# Mus musculus [11] = assay: Antagonizing amphetamine induced hyperlocomotion in mice was determined after […] administration; assay type: functional
# [12] = Oral bioavailability was determined in rats and rhesus monkey; assay type: ADME, organism-based; conditions: eutheria, in vivo
# [13] = Brain/Plasma AUC ratio was determined after oral administration of 50 mg/kg; assay type: ADME, organism-based; design: dose 50 mg/kg, route oral; conditions: brain and plasma
# Mus musculus [14] = assay: Antagonizing amphetamine induced hyperlocomotion in mice was determined after (ip) administration; assay type: functional
# Rodentia sp. [15] = assay: Antipsychotic potential by blockade of apomorphine disruption in PPI after (sc) administration; assay type: functional; conditions: read-out: MED
# Rodentia sp. [16] = test system: Rodentia sp.
# Rodentia sp. [17] = test system: Rodentia sp.; remark: listed apart in the source
# Rodentia sp. [18] = test system: Rodentia sp.; remark: listed apart in the source
# Rodentia sp. [19] = test system: Rodentia sp.; remark: listed apart in the source
# Rodentia sp. [20] = test system: Rodentia sp.; remark: listed apart in the source
# [21] = target: Voltage-gated L-type calcium channel (Homo sapiens, UniProt O60840+Q01668+Q13698+Q13936); assay: Percent inhibition of binding to calcium channel at 10 uM; assay type: protein assay
# [22] = Percent inhibition of binding affinity for sodium channel at 10 uM
# Rodentia sp. [23] = assay: EPS liability measured by blockade of stereotypy after oral administration of […] umol/kg; not effective; assay type: functional, organism-based
# Rodentia sp. [24] = assay: Antipsychotic potential by blockade of apomorphine or amphetamine hyperactivity after oral administration; assay type: functional
# Rodentia sp. [25] = assay: Motor impairment by impaired spontaneous locomotor activity after oral administration of […] umol/kg; not effective; assay type: functional, organism-based
# Rodentia sp. [26] = assay: Extrapyramidal liability by induction of catalepsy after oral administration of […] umol/kg; not effective; assay type: functional, organism-based
# [27] = Plasma half life period was determined in human; assay type: ADME, organism-based
# Rodentia sp. [28] = assay: Induction of catalepsy was determined after a (sc) administration; assay type: functional
# Rodentia sp. [29] = assay: Extrapyramidal liability by induction of catalepsy after a (sc) administration 80 umol/kg; not effective; assay type: functional, organism-based
# Rodentia sp. [30] = assay: Antipsychotic potential by inhibition of conditioned avoidance responding after a (sc) administration 40 umol/kg; not effective; assay type: functional, organism-based
# Rodentia sp. [31] = assay: Motor impairment by impaired spontaneous locomotor activity after a (sc) administration; assay type: functional
# Rodentia sp. [32] = assay: Antipsychotic potential by blockade of apomorphine or amphetamine hyperactivity after a (sc) administration; assay type: functional
# Rodentia sp. [33] = assay: Motor impairment by impaired rotarod performance after a (sc) administration; assay type: functional
# Sequence of 5-hydroxytryptamine receptor 2A (P28223 whole entry): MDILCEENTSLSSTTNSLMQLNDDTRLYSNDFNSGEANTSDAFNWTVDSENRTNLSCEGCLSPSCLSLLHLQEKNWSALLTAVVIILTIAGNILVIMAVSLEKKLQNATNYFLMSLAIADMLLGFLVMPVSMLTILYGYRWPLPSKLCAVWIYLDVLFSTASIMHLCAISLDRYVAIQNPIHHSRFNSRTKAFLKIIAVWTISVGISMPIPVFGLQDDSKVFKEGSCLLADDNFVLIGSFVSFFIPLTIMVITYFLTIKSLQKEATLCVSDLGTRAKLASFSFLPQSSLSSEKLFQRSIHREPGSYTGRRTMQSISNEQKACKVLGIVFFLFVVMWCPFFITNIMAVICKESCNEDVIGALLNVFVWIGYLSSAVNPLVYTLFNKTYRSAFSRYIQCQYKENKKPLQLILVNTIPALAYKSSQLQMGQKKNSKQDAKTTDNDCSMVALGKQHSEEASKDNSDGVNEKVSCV
smiles,measurement,setting,value
c1ccc(N2CCN(Cc3c[nH]c4ccccc34)CC2)cc1,IC50,[1],> 10000 nM
O=C(c1ccc(F)cc1)C1CCN(CCn2c(=O)[nH]c3ccccc3c2=O)CC1 [KETANSERIN],Ki,D(4) dopamine receptor,3.5 nM
O=C1Cc2cc(CCN3CCN(c4nsc5ccccc45)CC3)c(Cl)cc2N1 [ZIPRASIDONE],Ki,[2],1.9 nM
same,Ki,[3],37 nM
same,Ki,[4],> 10000 nM
Cc1c(-c2ccccc2)[nH]c(=O)n1C1CCN(Cc2cccc(C#N)c2)CC1,half-life,[5],1.1 h
same,bioavailability,[6],69%
c1ccc(N2CCN(Cc3c[nH]c4ncccc34)CC2)cc1,Ki,D(4) dopamine receptor,1.9 nM
same,Cmax,[7],18 ng/mL
O=C(c1ccc(F)cc1)C1CCN(CCCCc2ccccc2)CC1,Ki,[8],5.3 nM
O=S1(=O)c2cccc3cccc(c23)N1CCCN1CCN(c2ccc(F)cc2)CC1 [FANANSERIN],Ki,D(4) dopamine receptor,2.9 nM
same,ED50,Rattus norvegicus [9],2.4 mg/kg
same,ED50,Rattus norvegicus [10],0.99 mg/kg
O=c1ccc2ccc(NCCNc3ccccc3)cc2o1,Ki,D(4) dopamine receptor,5.8 nM
OC(c1ccccc1)C1CCN(CCc2ccccc2)CC1 (configuration not stated) [GLEMANSERIN],Ki,[8],2.5 nM
COc1cccc([C@H](O)C2CCN(CCc3ccc(F)cc3)CC2)c1O,ED50,Mus musculus [11],0.62 mg/kg
same,bioavailability,[12],< 3%
same,Kp,[13],< 0.13
same,ED50,Mus musculus [14],0.08 mg/kg
NS(=O)(=O)c1ccc(N2CCN(CC[C@@H]3OCCc4ccccc43)CC2)cc1 [SONEPIPRAZOLE],minimal effective dose,Rodentia sp. [15],30 mg/kg
same,Ki,D(4) dopamine receptor,6.8 nM
same,NE,Rodentia sp. [16],inactive
same,NE,Rodentia sp. [17],inactive
same,NE,Rodentia sp. [18],inactive
same,NE,Rodentia sp. [19],inactive
same,NE,Rodentia sp. [20],inactive
Clc1ccccc1CCN1CCN(c2[nH]nc3c2CCc2ccccc2-3)CC1,Ki,D(4) dopamine receptor,4.3 nM
same,half-life,[5],1 h
same,bioavailability,[6],31%
same,inhibition at 10 µM,[21],58%
same,inhibition,[22],33%
O=C(c1ccccc1)C1CCN(CCc2ccccc2)CC1,Ki,[8],9.6 nM
OC(c1ccc(F)cc1)C1CCN(CCCCc2ccccc2)CC1 (configuration not stated),Ki,[8],126 nM
Cc1c(C2CCN(CCc3ccccc3)CC2)noc1-c1ccc(Cl)cc1,half-life,[5],2 h
same,bioavailability,[6],38%
Fc1ccc(OC[C@@H]2CC[C@H]3CN(c4ncc(F)cn4)CCN3C2)cc1,minimal effective dose,Rodentia sp. [15],18 mg/kg
same,NE,Rodentia sp. [23],inactive
same,ED50,Rodentia sp. [24],13 mg/kg
same,NE,Rodentia sp. [25],inactive
same,NE,Rodentia sp. [26],inactive
COc1cccc([C@H](O)C2CCN(CCc3ccc(F)cc3)CC2)c1OC [VOLINANSERIN],half-life,[27],6.6 h
c1ccc2c(c1)CC(CN1CCN(c3ccc4c(c3)OCCO4)CC1)C2,ED50,Rodentia sp. [28],80 mg/kg
same,NE,Rodentia sp. [29],inactive
same,NE,Rodentia sp. [30],inactive
same,ED50,Rodentia sp. [31],40 mg/kg
same,ED50,Rodentia sp. [32],9 mg/kg
same,ED50,Rodentia sp. [33],66 mg/kg
